Assay type in all cases: functional
In assay [1] the test system is Aspergillus niger. Kind of assay: Antifungal activity against Aspergillus niger MTCC 281 at 200 ug/ml after 72 hr by cup-plate method. The following applies: MTCC 281, 72 h, read-out: IZ.
Assay [2] concerns Penicillium citrinum. Kind of assay: Antifungal activity against Penicillium citrinum NCIM 768 at 200 ug/ml after 72 hr by cup-plate method. As to conditions: NCIM 768, 72 h, read-out: IZ.
Assay [3] deals with Aspergillus flavus. The experiment in a line: Antifungal activity against Aspergillus flavus MTCC 277 at 200 ug/ml after 72 hr by cup-plate method. As to conditions: MTCC 277, 72 h, read-out: IZ.
The subject of assay [4] is Monascus purpureus. Kind of assay: Antifungal activity against Monascus purpureus MTCC 369 at 200 ug/ml after 72 hr by cup-plate method. As to conditions: MTCC 369, 72 h, read-out: IZ.
The test system of assay [5] is Monascus purpureus. The experiment in a line: Antifungal activity against Monascus purpureus MTCC 369 at 100 ug/ml after 72 hr by cup-plate method. As to conditions: MTCC 369, 72 h, read-out: IZ.
Assay [6] concerns Aspergillus niger. Kind of assay: Antifungal activity against Aspergillus niger MTCC 281 at 100 ug/ml after 72 hr by cup-plate method. The following applies: MTCC 281, 72 h, read-out: IZ.
Assay [7] relates to Aspergillus flavus. The experiment in a line: Antifungal activity against Aspergillus flavus MTCC 277 at 100 ug/ml after 72 hr by cup-plate method. The following applies: MTCC 277, 72 h, read-out: IZ.
Assay [8] deals with Penicillium citrinum. Kind of assay: Antifungal activity against Penicillium citrinum NCIM 768 at 100 ug/ml after 72 hr by cup-plate method. As to conditions: NCIM 768, 72 h, read-out: IZ.

In the case of `O=[N+]([O-])c1ccc(NCc2cc3ccccc3nc2Cl)cc1`, the zone of inhibition at 200 µg/mL in the assay with Aspergillus niger [1] is 8.06 mm; with Penicillium citrinum [2] it was 6.13 mm; in the assay with Aspergillus flavus [3] it was 8.33 mm; in the assay with Monascus purpureus [4], 7.7 mm.
On to `Clc1nc2ccccc2cc1CNC1CCCCC1`, for which the zone of inhibition at 200 µg/mL in the assay on Aspergillus niger [1] is 6.27 mm.
As to `Cc1ccccc1NCc1cc2ccccc2nc1Cl`, the zone of inhibition at 200 µg/mL with Aspergillus niger [1] was 8.66 mm; with Penicillium citrinum [2], 7.03 mm; with Aspergillus flavus [3], 7.03 mm; in the assay with Monascus purpureus [4] it was 6.4 mm.
For the compound `Clc1nc2ccccc2cc1CNc1ccc(Br)cc1`, the zone of inhibition at 200 µg/mL was found to be 13.7 mm in the assay with Aspergillus niger [1], 9.86 mm in the assay with Penicillium citrinum [2], 10.5 mm in the assay on Aspergillus flavus [3] and 8 mm in the assay on Monascus purpureus [4].
In the case of `CN(C/C=C/C#CC(C)(C)C)Cc1cccc2ccccc12` [TERBINAFINE], the zone of inhibition at 100 µg/mL was found to be 26.2 mm in the assay with Monascus purpureus [5], 24.7 mm in the assay on Aspergillus niger [6], 25.1 mm with Aspergillus flavus [7] and 21.8 mm in the assay with Penicillium citrinum [8].
On to `Clc1nc2ccccc2cc1CNc1ccccc1`, for which the zone of inhibition at 200 µg/mL with Aspergillus niger [1] came out at 12 mm; in the assay on Penicillium citrinum [2], 8.06 mm; in the assay with Aspergillus flavus [3] it was 12.4 mm; in the assay with Monascus purpureus [4] it was 7.7 mm.
The corresponding values for `Clc1nc2ccccc2cc1CNCc1ccccc1` are 15.7 mm, 9.06 mm, 14.5 mm and 8.4 mm.
The corresponding values for `CN(Cc1cc2ccccc2nc1Cl)c1ccc(Cl)c(Cl)c1` are 21.1 mm, 11.1 mm, 19.5 mm and 10.4 mm.
The corresponding values for `CN(Cc1cc2ccccc2nc1Cl)c1ccc(Cl)cc1` are 17.1 mm, 9.85 mm, 17.7 mm and 10.5 mm.
Turning to `COc1ccc(NCc2cc3ccccc3nc2Cl)cc1`, the zone of inhibition at 200 µg/mL with Aspergillus niger [1] stood at 10.8 mm; with Penicillium citrinum [2], 7.63 mm; with Aspergillus flavus [3], 13 mm; in the assay with Monascus purpureus [4] it was 7.66 mm.
For `Fc1ccc(NCc2cc3ccccc3nc2Cl)cc1`, the zone of inhibition at 200 µg/mL in the assay with Aspergillus niger [1] was 14.8 mm; with Penicillium citrinum [2], 8.53 mm; in the assay on Aspergillus flavus [3], 15 mm; in the assay on Monascus purpureus [4], 9.8 mm.
For `CN(Cc1cc2ccccc2nc1Cl)c1cccc(Cl)c1` the same measures were 15.2 mm, 11.1 mm, 12.1 mm and 9.63 mm.
For `Fc1ccc(NCc2cc3ccccc3nc2Cl)cc1Cl` the same measures were 17.8 mm, 9.73 mm, 19.7 mm and 11.5 mm.
For `Clc1ccccc1NCc1cc2ccccc2nc1Cl` the same measures were 13.9 mm, 7.06 mm, 10.6 mm and 7.33 mm.
Take `CN(Cc1cc2ccccc2nc1Cl)c1ccccc1`: the zone of inhibition at 200 µg/mL amounted to 13.2 mm in the assay on Aspergillus niger [1], 9.74 mm with Penicillium citrinum [2], 14.2 mm in the assay on Aspergillus flavus [3] and 8.09 mm in the assay on Monascus purpureus [4].
The corresponding values for `Clc1ccc(NCc2cc3ccccc3nc2Cl)cc1` are 15.9 mm, 10.3 mm, 16 mm and 9.73 mm.
As for `CN(Cc1cc2ccccc2nc1Cl)c1ccc(F)cc1`, the zone of inhibition at 200 µg/mL is 15.9 mm in the assay with Aspergillus niger [1], 9.77 mm in the assay with Penicillium citrinum [2], 17.1 mm with Aspergillus flavus [3] and 11.5 mm in the assay with Monascus purpureus [4].
The corresponding values for `Clc1cccc(NCc2cc3ccccc3nc2Cl)c1` are 13.4 mm, 8.03 mm, 11.6 mm and 9.63 mm.
The corresponding values for `CN(Cc1cc2ccccc2nc1Cl)c1ccc(F)c(Cl)c1` are 19.4 mm, 10.4 mm, 20.8 mm and 13.1 mm.
For `Cc1cccc(NCc2cc3ccccc3nc2Cl)c1` the same measures were 9.53 mm, 5.73 mm, 10.1 mm and 7.6 mm.
For `Cc1ccc(NCc2cc3ccccc3nc2Cl)cc1`, the zone of inhibition at 200 µg/mL in the assay on Aspergillus niger [1] amounted to 10.9 mm; with Penicillium citrinum [2], 8.06 mm; in the assay on Aspergillus flavus [3], 12.8 mm; with Monascus purpureus [4] it was 7.63 mm.
For `Clc1ccc(NCc2cc3ccccc3nc2Cl)cc1Cl` the same measures were 19.6 mm, 8.76 mm, 18.7 mm and 9.7 mm.
As to `CCCCNCc1cc2ccccc2nc1Cl`, the zone of inhibition at 200 µg/mL was found to be 9.47 mm in the assay with Aspergillus niger [1] and 8.25 mm in the assay with Aspergillus flavus [3].

These data come from ChEMBL document CHEMBL3046541, “Design and synthesis of 2-chloroquinoline derivatives as non-azoles antimycotic agents” (2011).
